Entries after “also recorded” stand apart in the source; their conditions may differ. Where no end group is shown, it is not given here.
Tested on: GmRLK18-1 LRR domain (RHG1)
Assay: Binding of CLE like peptides to purified LRR domain of the RLK at rhg1/Rfs2, titration by luminescence spectrometry
Parameters: species or system Glycine max
Conditions: assays in vitro
Text: (§1) The full length rhg1/Rfs2 or Rhg4 cDNA from the SCN resistant cultivar, ‘Forrest’ (Bruker et al. 2005), was sub-cloned in pGEM-T vector. For the rhg1/Rfs2 LRR DNA was PCR amplified using internal primers. Primers were designed to copy and amplify a 1032 bp region encompassing the 10 LRRs of rhg1. The sense primer 141-485F: 5′-[…]-3′ contained an eight base linker followed by an NcoI restriction site (in bold) to allow in-frame cloning into the expression vector pET30A (+). A factor Xa site (underlined) was incorporated in the sense primer in order to cleave the fusion protein. The anti-sense primer 141-485R: 5′-[…]-3′ contained a six base linker followed by an XhoI restriction site (in bold). The stop codon (underlined) was added to the primer sequence to terminate the RHG1 translation. The amplicon obtained by PCR was isolated by agarose gel electrophoresis and purified using gel elution. The amplified fragment was subcloned into pGEMT vector by ligation of the 3′T vector overhang with the 3′A added by Taq polymerase during template amplification. The complementarity between the vector 3′T overhangs and the PCR product 3′A overhangs allowed for direct ligation of PCR products into the vector. pGEMT vector was transformed into DH5a cells, positive colonies were selected and grown overnight in 5 ml of 2-fold YT medium. The recombinant plasmid DNA was purified using the Qiagen mini-prep kit.
About […] of the LRR sub-clone plasmid DNA was digested with NcoI and XhoI. Purified insert was ligated overnight at 16° C. using T4 DNA ligase into a XhoI/NcoI predigested pET30a (+) vector. The ratio of insert DNA to plasmid DNA was 3:1. The construct contained the hexa-his inframe with the Factor Xa vector site and 5′ end of the insert. The recombinant plasmid was transformed into DH5a cells. Positive colonies were selected on 2-fold YT plates supplemented with 50 μg/ml kanamycin and screened by digestion of mini-prep plasmid DNA with NcoI and XhoI followed by agarose gel electrophoresis. The nature of the inserts were also verified by DNA sequence analysis using the ABI 377 DNA sequencer (Foster City, Calif.).
A Quikchange site directed mutagenesis kit (Stratagene) was used for RLSH generation. Both sense and anti-sense primers were designed to loop out the 114 bp nucleotide linker region between the hexa-his tag and the first codon of RLLH. The forward primer DMF1: 5′-[…]-3′ and reverse primer DMR1: 5′-[…]-3′ were complementary in sequence and annealed to opposite stands of DNA. Amplification of template was performed with Pfu-Turbo DNA polymerase. Following amplification, the parent DNA (methylated and hemi-methylated) was digested with DpnI endonuclease (target sequence: 5′-Gm6ATC-3′). The amplified vector DNA containing the desired deletion was transformed into XL1-Blue competent cells and the cells were grown overnight in 2XYT supplemented with 50 μg/ml tetracycline and 50 μg/ml kanamycin. Colonies were picked, grown overnight, DNA purified and inserts identified by digestion of plasmid DNA with NdeI and XhoI followed by 2% (w/v) agarose gel electrophoresis. DNA was subsequently sequenced to verify looping out of the RLLH linker region. DNA from positive clones was transformed into BL21 (DE3-RIL) competent cells.
BL21-CodonPlus™-RIL series of strains contain extra copies of the E. coli argU, ileY, and leuW tRNA genes. The modification allowed for high expression of proteins that were difficult to express in conventional E. coli hosts due to the codon usage bias of the gene of interest. RHG1 protein contained 18 codons rarely used in E. coli in the LRR alone (Table 3.1). The 5 ml of LB overnight culture containing Rhg1/Rfs2 LRR or Rhg4 LRR was transferred to 1 L of M9 minimal media supplemented with ammonium sulfate and kanamycin. The cells were grown at 37° C. to an O.D of 1.0. The protein was induced with 0.4 mM IPTG and incubated at 16° C. in an orbital shaker for 18-20 h. […]

| Molecule | binding by the GmRLK18-1 derived LRR peptide, in words |
| --- | --- |
| KRLSPSGPDPHHH [N, KRLSPSGPDPHHH] | strong binding constant |
| RLAPEGPDPHHN [compound 30, RLAPEGPDPHHN] | bound weakly |
| RTVPSGPDPLHH [compound 3, RTVPSGPDPLHH] | strong binding constant |

Same assay, conditions: assays in vitro; read-out: binding constants, GmRLK18-1-LRR

| Molecule | Kd |
| --- | --- |
| AHEVPSGPNPISNR [T, AHEVPSGPNPISNR] | 20 nM |

Same assay, conditions: estimated from the peptide with one diverged LRR motif; read-out: apparent Kd for dimerization

| Molecule | Kd |
| --- | --- |
| CTLSRLKTLDISNNALNGNLPATLSNLS [L] | 36 nM |

Same assay, conditions: purified LRR domain; binding constants calculated from titration experiments; read-out: Kd (nM) RHG1

| Molecule | Kd |
| --- | --- |
| DLPLAPADRLAPGGPDPQHNVRAPPRKP [2L] | 142 nM |
| KGLGLHEELRTVPSGPDPLHHHVNPPRQPR [3L] | 65 nM |
| KRLSPSGPDPHHH [N, KRLSPSGPDPHHH] | 30 nM |
| RAELDFNYMSKRRVPNGPDPIHNRRAGNSGR [36L] | 49 nM |
| RLAPEGPDPHHN [compound 30, RLAPEGPDPHHN] | 44 nM |
| RLAPGGPDPQHN [compound 2, RLAPGGPDPQHN] | 45 nM |
| RTVPSGPDPLHH [compound 3, RTVPSGPDPLHH] | 29 nM |
| SKRRVPNGPDPIHNR [compound 36, SKRRVPNGPDPIHNR] | 14 nM |

Tested on: GmRLK8-1 LRR domain (RHG4)
Assay: Binding of CLE like peptides to purified LRR domain of the RLK at Rhg4, titration by luminescence spectrometry
Parameters: species or system Glycine max
Conditions: assays in vitro
Text: as §1
BL21-CodonPlus™-RIL series of strains contain extra copies of the E. coli argU, ileY, and leuW tRNA genes. The modification allowed for high expression of proteins that were difficult to express in conventional E. coli hosts due to the codon usage bias of the gene of interest. RHG1 protein contained 18 codons rarely used in E. coli in the LRR alone (Table 3.1). The 5 ml of LB overnight culture containing Rhg1/Rfs2 LRR or Rhg4 LRR was transferred to 1 L of M9 minimal media supplemented with ammonium sulfate and kanamycin. The cells were grown at 37° C. to an O.D of 1.0. The protein was induced with 0.4 mM IPTG and incubated at 16° C. in an orbital shaker for 18-20 h.
Proteins were solubilized from IBs, purified and refolded by the method described by Afzal and Lightfoot 2007, Protein Expression and Purification 53: 346-355. They were produced as in Example 9 and used for Far Western identification of interacting root proteins (FIGS. 4 & 5) and for identification of preferred ligands among small peptides found in root phloem (Table 4).

| Molecule | binding by the GmRLK8-1 LRR domain protein, in words |
| --- | --- |
| AHEVPSGPNPISNR [T, AHEVPSGPNPISNR] | bound weakly |
| RLAPEGPDPHHN [compound 30, RLAPEGPDPHHN] | bound very weakly |
| RLAPGGPDPQHN [compound 2, RLAPGGPDPQHN] | bound very weakly |

Same assay, conditions: assays in vitro; read-out: affinity, GmRLK8-1 LRR domain

| Molecule | Kd |
| --- | --- |
| KRLSPSGPDPHHH [N, KRLSPSGPDPHHH] | 78 nM |

Same assay, conditions: purified LRR domain; binding constants calculated from titration experiments; read-out: Kd (nM) RHG4

| Molecule | Kd |
| --- | --- |
| AHEVPSGPNPISNR [T, AHEVPSGPNPISNR] | 204 nM |
| CTLSRLKTLDISNNALNGNLPATLSNLS [L] | 135 nM |
| DLPLAPADRLAPGGPDPQHNVRAPPRKP [2L] | 338 nM |
| KGLGLHEELRTVPSGPDPLHHHVNPPRQPR [3L] | 142 nM |
| RAELDFNYMSKRRVPNGPDPIHNRRAGNSGR [36L] | 51 nM |
| RLAPEGPDPHHN [compound 30, RLAPEGPDPHHN] | 84 nM |
| RLAPGGPDPQHN [compound 2, RLAPGGPDPQHN] | 96 nM |
| RTVPSGPDPLHH [compound 3, RTVPSGPDPLHH] | 50 nM |
| SKRRVPNGPDPIHNR [compound 36, SKRRVPNGPDPIHNR] | 52 nM |

Tested on: GmRLK18-1 LRR domain
Assay: Far-Western analysis of soybean root proteins probed with the LRR domain of GmRLK18-1
Assay type: binding, Glycine max
Conditions: 2D gel of SCN inoculated root proteins of NIL 34-23; MS identification

| Molecule | binding to the GmRLK18-1 LRR domain in Far-Western |
| --- | --- |
| cyclophilin: soybean cyclophilin, GenBank gi 17981611, binds the purified LRR domain | bound strongly; also recorded: interacting partner |

Tested on: not listed separately
Assay: Exogenous peptide treatment of plants
Assay type: in vivo
Conditions: phenotypes: transient wilting, increased plant vigor, increased disease resistance

| Molecule | effect as exogenous treatment |
| --- | --- |
| AHEVPSGPNPISNR [T, AHEVPSGPNPISNR] | effective |
| KRLSPSGPDPHHH [N, KRLSPSGPDPHHH] | effective |

Target: GmRLK8-1 LRR domain (from the RLK protein at Rhg4) (Glycine max)
Assay: fluorescence (luminescence spectrometry) titration of peptide with purified LRR domain, in vitro
Conditions: not given

| Molecule | Kd |
| --- | --- |
| SKRRVPNGPDPIHNR (modifications not checked) [peptide 36 (GmCLE34, AtCLE36, MtCLE36)] | 52 nM |
| DLPLAPADRLAPGGPDPQHNVRAPPRKP (modifications not checked) [peptide 2L (GmNIC1, LjCLE-R2 and LjCLE-R1)] | 338 nM |
| RTVPSGPDPLHH (modifications not checked) [peptide 3 (GmCLE3, AtCLE3, AtClv3 unmodified)] | 50 nM |
| RLAPGGPDPQHN (modifications not checked) [peptide 2 (GmNIC1, LjCLE-R2 and LjCLE-R1)] | 96 nM |
| CTLSRLKTLDISNNALNGNLPATLSNLS (modifications not checked) [peptide L (GmLRR, GmRLK18-1)] | 135 nM |
| KGLGLHEELRTVPSGPDPLHHHVNPPRQPR (modifications not checked) [peptide 3L (GmCLE3, AtCLE3, AtClv3 unmodified)] | 142 nM |
| AHEVPSGPNPISNR (modifications not checked) [peptide T (GmTDIF, ZeTDIF)] | 204 nM |
| RAELDFNYMSKRRVPNGPDPIHNRRAGNSGR (modifications not checked) [peptide 36L (GmCLE34, AtCLE36, MtCLE36)] | 51 nM |
| KRLSPSGPDPHHH (modifications not checked) [peptide N (HgCLV3)] | 78 nM |
| RLAPEGPDPHHN (modifications not checked) [peptide 30 (GmCLE30, GmRIC1)] | 84 nM |

Target: T1, purified GmRLK18-1 LRR domain (6x his-RHG1) (Glycine max)
T1 chain: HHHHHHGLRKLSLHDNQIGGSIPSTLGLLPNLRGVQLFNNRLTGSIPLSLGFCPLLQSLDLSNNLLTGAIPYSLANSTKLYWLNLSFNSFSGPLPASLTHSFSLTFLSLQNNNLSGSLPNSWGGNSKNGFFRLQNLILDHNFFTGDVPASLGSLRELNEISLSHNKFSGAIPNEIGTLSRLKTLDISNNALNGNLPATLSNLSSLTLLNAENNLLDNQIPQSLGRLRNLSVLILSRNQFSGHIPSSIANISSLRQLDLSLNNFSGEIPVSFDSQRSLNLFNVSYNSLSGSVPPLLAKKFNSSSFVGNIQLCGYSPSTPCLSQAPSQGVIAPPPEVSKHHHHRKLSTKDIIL
Assay: as above
Conditions: not given

| Molecule | Kd |
| --- | --- |
| SKRRVPNGPDPIHNR (modifications not checked) [peptide 36 (GmCLE34, AtCLE36, MtCLE36)] | 14 nM |
| DLPLAPADRLAPGGPDPQHNVRAPPRKP (modifications not checked) [peptide 2L (GmNIC1, LjCLE-R2 and LjCLE-R1)] | 142 nM |
| RTVPSGPDPLHH (modifications not checked) [peptide 3 (GmCLE3, AtCLE3, AtClv3 unmodified)] | 29 nM |
| RLAPGGPDPQHN (modifications not checked) [peptide 2 (GmNIC1, LjCLE-R2 and LjCLE-R1)] | 45 nM |
| KGLGLHEELRTVPSGPDPLHHHVNPPRQPR (modifications not checked) [peptide 3L (GmCLE3, AtCLE3, AtClv3 unmodified)] | 65 nM |
| AHEVPSGPNPISNR (modifications not checked) [peptide T (GmTDIF, ZeTDIF)] | 20 nM |
| RAELDFNYMSKRRVPNGPDPIHNRRAGNSGR (modifications not checked) [peptide 36L (GmCLE34, AtCLE36, MtCLE36)] | 49 nM |
| KRLSPSGPDPHHH (modifications not checked) [peptide N (HgCLV3)] | 30 nM |
| RLAPEGPDPHHN (modifications not checked) [peptide 30 (GmCLE30, GmRIC1)] | 44 nM |

Target: T1, purified GmRLK18-1 LRR domain (6x …)
Assay: fluorescence (luminescence spectrometry) titration of peptide with purified LRR domain, in vitro; apparent Kd for dimerization
Conditions: not given

| Molecule | Kd |
| --- | --- |
| CTLSRLKTLDISNNALNGNLPATLSNLS (modifications not checked) [peptide L (GmLRR, GmRLK18-1)] | 36 nM |

Reference: US20120192315A1, “RESISTANCE GENES AND PROTEINS ACTIVE AGAINST FUSARIUM ROOT ROTS, CYST NEMATODES AND SOYBEAN SUDDEN DEATH SYNDROME AND METHODS EMPLOYING SAME” (Southern Illinois University Carbondale, priority 2011, published 2012)
